Source: patent US9364388B2, “Methods of treatment with nitric oxide at pressures greater than one atmosphere” (Barry University, priority 2012, dated 2016)

Experiments:
[1] = Percutaneous absorption of nitric oxide, in vitro Franz human skin finite dose model; type: in vitro ADME; details: delivered at a pressure of 1.2 atm as compared with normal pressure; Franz diffusion cell, human skin (FIG. 10)
Experimental: The percutaneous absorption of nitric oxide is evaluated using a Franz human skin finite dose model. The in vitro Franz human skin finite dose model has proven to be a valuable tool for the study of percutaneous absorption and the determination of the pharmacokinetics of topically applied drugs. The model uses human ex vivo cadaver or surgical skin mounted in a specially designed diffusion chamber allowing the skin to be maintained at a temperature and humidity that match typical in vivo conditions. A finite dose of a formulation is applied to the outer surface of the skin and drug absorption is measured by monitoring its rate of appearance in the reservoir solution bathing the inner surface of the skin. In this study, the applied dose is a controlled continuous exposure to a gas. Data defining total absorption, rate of absorption, as well as skin content can be accurately determined in this model. […]
A single center, open label study of nitric oxide formulations is performed. […] The rate and extent of penetration of nitric oxide, at normal pressure and at greater than 1 atm of pressure (e.g., 1.2×, 1.5×, 1.8×, 2.0×, 2.2×, etc.) for continuous exposure durations of 30 and 60 minutes is determined for the amount penetrating through the skin and into the different layers of the skin using a Franz Diffusion Cell. […]

[2] = mixture of 1000 ppm nitric oxide and 21% oxygen; cited from earlier work

Structure (SMILES): [N]=O [NO, nitric oxide]
- NO penetration in the epidermis and stratum corneum [1]: increased
- time for half of the nitric oxide to react to become nitric dioxide [2]: about 3.5 minutes
